Measured values: the NIST ThermoML archive (doi:10.1016/j.fluid.2014.01.003)
Numbers after ± are expanded uncertainties.

Tests used:
[1] = xn = mol fraction of the nth substance listed; conditions: 298.2 K, 101 kPa, Liquid, Camera Imaging
[2] = 101.33 kPa, Liquid, Cone and plate viscometry
[3] = refractive index (Na D-line) (dimensionless); conditions: 101.33 kPa, Liquid, Standard Abbe refractometry
[4] = φn = volume fraction of the nth substance listed; conditions: 101 kPa, Liquid, Camera Imaging, φ1 = 0.5

SMILES | viscosity ([2]; 298.2 K) [mPa·s] | viscosity ([2]; 308.2 K) [mPa·s] | viscosity ([2]; 318.2 K) [mPa·s] | viscosity ([2]; 328.2 K) [mPa·s] | viscosity ([2]; 338.2 K) [mPa·s] | refractive index ([3]; 298.2 K) | refractive index ([3]; 318.2 K) | refractive index ([3]; 328.2 K) | refractive index ([3]; 338.2 K) | binary diffusion coefficient ([4]; 298.2 K) [m2/s] | also measured
OCCO [1,2-ethanediol] + O | – | – | – | – | – | – | – | – | – | – | binary diffusion coefficient ([1]; x1 = 0.0323): 1.23e-09 m2/s; binary diffusion coefficient ([1]; x1 = 0.0698): 8.36e-10 m2/s; binary diffusion coefficient ([1]; x1 = 0.114): 7.12e-10 m2/s; binary diffusion coefficient ([1]; x1 = 0.1667): 6.38e-10 m2/s; binary diffusion coefficient ([1]; x1 = 0.242): 5.86e-10 m2/s; binary diffusion coefficient ([1]; x1 = 0.3104): 5.02e-10 m2/s; binary diffusion coefficient ([1]; x1 = 0.4119): 4.33e-10 m2/s; binary diffusion coefficient ([1]; x1 = 0.5456): 3.2e-10 m2/s; binary diffusion coefficient ([1]; x1 = 0.7298): 2.84e-10 m2/s
Cn1cc[n+](C)c1.F[B-](F)(F)F [1,3-dimethyl-1H-imidazolium tetrafluoroborate] | 34 ± 1 | 22 ± 1 | 15 ± 1 | 11 ± 1 | 7.8 ± 1 | 1.4023 ± 0.0004 | 1.3993 ± 0.0004 | 1.3988 ± 0.0004 | 1.3975 ± 0.0004 | – | –
Cn1cc[n+](C)c1.F[B-](F)(F)F [1,3-dimethyl-1H-imidazolium tetrafluoroborate] + O | – | – | – | – | – | – | – | – | – | 6.87e-10 | binary diffusion coefficient ([4]; 308.2 K): 7.74e-10 m2/s; binary diffusion coefficient ([4]; 318.2 K): 8.45e-10 m2/s; binary diffusion coefficient ([4]; 328.2 K): 9.62e-10 m2/s; binary diffusion coefficient ([4]; 338.2 K): 1.06e-09 m2/s
CCCCn1cc[n+](C)c1.N#CN=C=[N-] [1-butyl-3-methylimidazolium dicyanamide] + O | – | – | – | – | – | – | – | – | – | 2.53e-10 | –
CCCCn1cc[n+](C)c1.O=[N+]([O-])[O-] [1-butyl-3-methylimidazolium nitrate] + O | – | – | – | – | – | – | – | – | – | 3.13e-10 | –
CCCCn1cc[n+](C)c1.F[B-](F)(F)F [1-butyl-3-methylimidazolium tetrafluoroborate] | 146 ± 4 | 76 ± 2 | 45 ± 1 | 29 ± 1 | 21 ± 1 | 1.4184 ± 0.0004 | 1.4142 ± 0.0004 | 1.4125 ± 0.0004 | 1.4106 ± 0.0004 | – | refractive index ([3]; 308.2 K): 1.4163 ± 0.0004
CCCCn1cc[n+](C)c1.F[B-](F)(F)F [1-butyl-3-methylimidazolium tetrafluoroborate] + O | – | – | – | – | – | – | – | – | – | 1.24e-10 | binary diffusion coefficient ([4]; 308.2 K): 2.56e-10 m2/s; binary diffusion coefficient ([4]; 318.2 K): 3.83e-10 m2/s; binary diffusion coefficient ([4]; 328.2 K): 5.13e-10 m2/s; binary diffusion coefficient ([4]; 338.2 K): 6.45e-10 m2/s
CCn1cc[n+](C)c1.N#CN=C=[N-] [1-ethyl-3-methylimidazolium dicyanamide] + O | – | – | – | – | – | – | – | – | – | 7.25e-10 | –
CCn1cc[n+](C)c1.[O-][Cl+3]([O-])([O-])[O-] [1-ethyl-3-methylimidazolium perchlorate] + O | – | – | – | – | – | – | – | – | – | 1.93e-10 | –
CCn1cc[n+](C)c1.F[B-](F)(F)F [1-ethyl-3-methylimidazolium tetrafluoroborate] | 45 ± 1 | 27 ± 1 | 19 ± 1 | 14 ± 1 | 11 ± 1 | 1.4098 ± 0.0004 | 1.4065 ± 0.0004 | 1.4053 ± 0.0004 | 1.4035 ± 0.0004 | – | refractive index ([3]; 308.2 K): 1.4082 ± 0.0004
CCn1cc[n+](C)c1.F[B-](F)(F)F [1-ethyl-3-methylimidazolium tetrafluoroborate] + O | – | – | – | – | – | – | – | – | – | 3.42e-10 | binary diffusion coefficient ([4]; 308.2 K): 4.65e-10 m2/s; binary diffusion coefficient ([4]; 318.2 K): 5.57e-10 m2/s; binary diffusion coefficient ([4]; 328.2 K): 6.72e-10 m2/s; binary diffusion coefficient ([4]; 338.2 K): 7.89e-10 m2/s
O [water] | 0.9 | 0.72 | 0.61 | 0.5 | 0.43 | 1.3325 ± 0.0005 | 1.3299 ± 0.0005 | 1.3282 ± 0.0005 | 1.3275 ± 0.0005 | – | refractive index ([3]; 308.2 K): 1.3313 ± 0.0005
